In paper doi:10.1101/2021.08.27.457891v1, “Optical Control of Invertebrate nAChR and Behaviors with Dithienylethene-Imidacloprid” (biorxiv, 2021):

Assays:
[1] = target: T1, Musca nAChR; housefly (Musca domestica) nAChR; assay: [3H]NMI radioligand displacement; format: binding; conditions: competition with [3H]NMI
T1 construct: gene nAChRalpha1; pentameric channel

[2] = target: T2, cockroach nAChRs; cockroach nAChR membranes; assay: fluorescence polarization saturation binding; parameters: species or system Periplaneta americana; conditions: DitIMI irradiated at 320 nm for 15 min (photostationary mixture, 67% closed form); 227 mg/L membranes; 22 °C, 1 h
T2 construct: gene nAChRalpha1; pentameric channel

## CC12SC(CN3CCN(Cc4ccc(Cl)nc4)C3=N[N+](=O)[O-])=CC1=C1C(=C3C=C(CN4CCN(Cc5ccc(Cl)nc5)C4=N[N+](=O)[O-])SC32C)C(F)(F)C(F)(F)C1(F)F (stereo not shown) [closed-DitIMI]
[1]; after UV illumination, photostationary mixture (67% closed form)
  IC50: 33.2 nM
[2]
  Kd: 13.5 nM

## Cc1sc(CN2CCN(Cc3ccc(Cl)nc3)C2=N[N+](=O)[O-])cc1C1=C(c2cc(CN3CCN(Cc4ccc(Cl)nc4)C3=N[N+](=O)[O-])sc2C)C(F)(F)C(F)(F)C1(F)F [open-DitIMI]
[1]; unirradiated open form
  IC50: 892 nM

## O=[N+]([O-])N=C1NCCN1Cc1ccc(Cl)nc1 [IMI]
[1]
  IC50: 28.8 nM
